From DBAASP
Values after ≈ are worked out from the molar mass of the structure shown. Values joined by “and” are separate entries in the source; they are usually repeats but may differ in a detail not shown here. Identical values can stand only once.

Columns and labels:
Assay in all cases: ≥ marks a high value that may be exact or a test limit, other limits are often not marked, values filed in µg/mL are converted to µM
[1] = system: Candida albicans CCARM 14022
[2] = system: Candida albicans SC5314
[3] = system: Candida albicans CCARM 14020
[4] = system: Malassezia sympodialis ATCC 42132
[5] = system: Klebsiella pneumoniae ESBL 61962
[6] = system: Enterobacter cloacae 218R
[7] = system: Enterococcus faecalis f43559
[8] = system: Pseudomonas aeruginosa H1027
[9] = system: Klebsiella pneumoniae ESBL 63575
[10] = system: Acinetobacter baumannii ATCC 17978
[11] = system: Enterococcus faecalis ATCC 29212
[12] = system: Stenotrophomonas maltophilia ATCC 13637
[13] = system: Pseudomonas aeruginosa LES400
[14] = system: Pseudomonas aeruginosa PAO1 H103
[15] = system: Enterococcus faecium mic80
[16] = system: Pseudomonas aeruginosa 198
[17] = system: Pseudomonas aeruginosa H1001
[18] = system: Staphylococcus aureus C623
[19] = system: Escherichia coli ESBL 63103
[20] = system: Candida albicans ATCC 64550
[21] = system: Pseudomonas aeruginosa 9
[22] = system: Enterococcus faecalis W61950
[23] = system: Staphylococcus aureus ATCC 25923
[24] = system: Escherichia coli ESBL 64771
[25] = system: Pseudomonas aeruginosa H1030
[26] = system: Escherichia coli O157:H7
[27] = system: Enterococcus faecium t62764
[28] = system: Pseudomonas aeruginosa 213
[29] = system: Staphylococcus aureus C622
[30] = system: Bacillus subtilis C626
[31] = system: Stenotrophomonas maltophilia
[32] = system: Pseudomonas aeruginosa M76
[33] = system: Staphylococcus aureus
[34] = system: Escherichia coli UB1005
[35] = system: Pseudomonas aeruginosa M1426
[36] = system: Achromobacter xylosoxidans
[37] = system: Pseudomonas fluorescens
[38] = system: Salmonella enterica serovar Typhimurium
[39] = system: Ralstonia pickettii
[40] = system: Pseudomonas aeruginosa
[41] = system: Pseudomonas aeruginosa PAO1
[42] = system: Pseudomonas aeruginosa M1251
[43] = system: Pseudomonas aeruginosa M917
[44] = system: Candida albicans
[45] = system: Pseudomonas aeruginosa R70
[46] = system: Escherichia coli KCCM 11569
[47] = system: Enterococcus faecium CCARM 5028
[48] = system: Enterococcus faecium CCARM 5029
[49] = system: Bacillus subtilis KCCM 11495

In the case of `C[C@H](NC(=O)[C@H](Cc1cnc[nH]1)NC(=O)[C@H](CO)NC(=O)[C@@H](N)CC(=O)O)C(=O)N[C@@H](CCCCN)C(=O)N[C@@H](CCCN=C(N)N)C(=O)N[C@@H](Cc1cnc[nH]1)C(=O)N[C@@H](Cc1cnc[nH]1)C(=O)NCC(=O)N[C@@H](Cc1ccc(O)cc1)C(=O)N[C@@H](CCCCN)C(=O)N[C@@H](CCCN=C(N)N)C(=O)N[C@@H](CCCCN)C(=O)N[C@@H](Cc1ccccc1)C(=O)N[C@@H](Cc1cnc[nH]1)C(=O)N[C@@H](CCC(=O)O)C(=O)N[C@@H](CCCCN)C(=O)N[C@@H](Cc1cnc[nH]1)C(=O)N[C@@H](Cc1cnc[nH]1)C(=O)N[C@@H](CO)C(=O)N[C@@H](Cc1cnc[nH]1)C(=O)N[C@@H](CCCN=C(N)N)C(=O)NCC(=O)N[C@@H](Cc1ccc(O)cc1)C(N)=O` [DSHAKRHHGYKRKFHEKHHSHRGY], the MIC [1] is reported as 3.73 µM and 10.5 µM, the MIC [2] is reported as 3.73 µM and 10.5 µM and the MIC [3] is reported as 3.73 µM and 10.5 µM. The MIC [4] was 5.01 µM (≈ 15.2 µg/mL).
`CC[C@H](C)[C@H](NC(=O)[C@H](Cc1c[nH]c2ccccc12)NC(=O)[C@H](CCCCN)NC(=O)[C@H](Cc1c[nH]c2ccccc12)NC(=O)[C@H](Cc1c[nH]c2ccccc12)NC(=O)[C@H](CCCNC(=N)N)NC(=O)[C@@H](N)CCCCN)C(=O)N[C@@H](CCCNC(=N)N)C(=O)N[C@@H](Cc1c[nH]c2ccccc12)C(=O)O` [KRWWKWIRW] was tested, and the MIC [5] was 25 µM (≈ 36.1 µg/mL), the MIC [6] was 3 µM (≈ 4.33 µg/mL) and the MIC [7] was at least 49 µM. For the same compound, the MIC [8] was 0.8 µM (≈ 1.16 µg/mL), the MIC [9] was 6.2 µM (≈ 8.96 µg/mL) and the MIC [10] was 5 µM (≈ 7.22 µg/mL). It also gave an MIC [11] of 12 µM (≈ 17.3 µg/mL), an MIC [12] of 0.4 µM (≈ 0.578 µg/mL) and an MIC [13] of 5.9 µM (≈ 8.52 µg/mL). It also gave an MIC [14] of 0.8 µM (≈ 1.16 µg/mL), an MIC [15] of 3.1 µM (≈ 4.48 µg/mL) and an MIC [16] of 1.5 µM (≈ 2.17 µg/mL). It also gave an MIC [17] of 0.554 µM (≈ 0.8 µg/mL), an MIC [18] of 1.5 µM (≈ 2.17 µg/mL) and an MIC [19] of 1.5 µM (≈ 2.17 µg/mL). It also gave an MIC [20] of at least 100 µM, an MIC [21] of 5.9 µM (≈ 8.52 µg/mL) and an MIC [22] of at least 99 µM. The MIC [23] was 3 µM (≈ 4.33 µg/mL), the MIC [24] was 1.5 µM (≈ 2.17 µg/mL) and the MIC [25] was 3 µM (≈ 4.33 µg/mL). It also gave an MIC [26] of 1.25 µM (≈ 1.81 µg/mL), an MIC [27] of 1.5 µM (≈ 2.17 µg/mL) and an MIC [28] of 3 µM (≈ 4.33 µg/mL). It also gave an MIC [29] of 5 µM (≈ 7.22 µg/mL) and an MIC [30] of 20 µM (≈ 28.9 µg/mL).
Compound `CC(C)C[C@H](NC(=O)[C@H](CC(C)C)NC(=O)[C@H](CCCCN)NC(=O)[C@H](C)NC(=O)[C@H](CC(C)C)NC(=O)[C@H](CCCCN)NC(=O)[C@H](CCCCN)NC(=O)[C@H](CC(C)C)NC(=O)[C@H](C)NC(=O)[C@H](CCCCN)NC(=O)[C@H](CCCCN)NC(=O)[C@H](Cc1ccc(O)cc1)NC(=O)[C@@H](N)CCCCN)C(N)=O` [KYKKALKKLAKLL] has an MIC [31] of 1.29 µM (≈ 2 µg/mL), an MIC [32] of 2.59 µM (≈ 4 µg/mL) and an MIC [33] of 10.4 µM (≈ 16 µg/mL). The MIC [34] was 2.59 µM (≈ 4 µg/mL), the MIC [35] was 10.4 µM (≈ 16 µg/mL) and the MIC [36] was 5.18 µM (≈ 8 µg/mL). It also gave an MIC [37] of 5.18 µM (≈ 8 µg/mL), an MIC [38] of 2.59 µM (≈ 4 µg/mL) and an MIC [39] of 2.59 µM (≈ 4 µg/mL). It also gave an MIC [40] of 5.18 µM (≈ 8 µg/mL), an MIC [41] of 2.59 µM (≈ 4 µg/mL) and an MIC [42] of 1.29 µM (≈ 2 µg/mL). The MIC [43] was 10.4 µM (≈ 16 µg/mL), the MIC [44] was 5.18 µM (≈ 8 µg/mL) and the MIC [45] was 1.29 µM (≈ 2 µg/mL).
For `CC(C)C[C@H](NC(=O)CNC(=O)[C@H](CCCCN)NC(=O)[C@H](CCCCN)NC(=O)[C@H](CC(C)C)NC(=O)[C@H](CC(C)C)NC(=O)[C@H](C)NC(=O)[C@H](CC(N)=O)NC(=O)[C@H](CC(C)C)NC(=O)[C@@H](N)Cc1c[nH]c2ccccc12)C(=O)N[C@@H](CC(N)=O)C(=O)N[C@@H](CS)C(=O)N[C@@H](C)C(=O)N[C@@H](CCCCN)C(=O)NCC(=O)N[C@H](C(=O)N[C@@H](CC(C)C)C(=O)N[C@@H](C)C(N)=O)C(C)C` [WLNALLKKGLNCAKGVLA], the MIC [46] was 1.48 µM (≈ 2.83 µg/mL), the MIC [47] was 0.74 µM and 1.48 µM and the MIC [48] was 0.74 µM and 1.48 µM. It also gave an MIC [49] of 2.96 µM (≈ 5.65 µg/mL).
